Test system: 324938-238-R-J1-PDC complex spheroid growth, % test/control
Assay: Anticancer human tumor 324938-238-R-J1-PDC patient-derived bladder carcinoma cell line growth inhibition [AhR]
Conditions: for IC50: curve of first compound; for viability, T/C: stronger effect = lower value
How it was run: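 Spheroids combined tumor cells with HUVEC endothelial cells and human MSCs as stroma. AhR antagonists were paired with standard or investigational drugs, each dosed in half-log steps down from near clinical Cmax, or from 10 microM where Cmax was unknown.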

[1] = second compound 0.1 µM, first compound 0.0316 µM
[2] = second compound 0.1 µM, first compound 0.1 µM
[3] = second compound 0.1 µM, first compound 0.316 µM
[4] = second compound 0.1 µM, first compound 1 µM
[5] = second compound 0.1 µM, first compound 3.16 µM
[6] = second compound 0.1 µM, first compound 10 µM
[7] = second compound 0.316 µM, first compound 0.0316 µM
[8] = second compound 0.316 µM, first compound 0.1 µM
[9] = second compound 0.316 µM, first compound 0.316 µM
[10] = second compound 0.316 µM, first compound 1 µM
[11] = second compound 0.316 µM, first compound 3.16 µM
[12] = second compound 0.316 µM, first compound 10 µM
[13] = second compound 1 µM, first compound 0.0316 µM
[14] = second compound 1 µM, first compound 0.1 µM
[15] = second compound 1 µM, first compound 0.316 µM
[16] = second compound 1 µM, first compound 1 µM
[17] = second compound 1 µM, first compound 3.16 µM
[18] = second compound 1 µM, first compound 10 µM
[19] = second compound 3.16 µM, first compound 0.0316 µM
[20] = second compound 3.16 µM, first compound 0.1 µM
[21] = second compound 3.16 µM, first compound 0.316 µM
[22] = second compound 3.16 µM, first compound 1 µM
[23] = second compound 3.16 µM, first compound 3.16 µM
[24] = second compound 3.16 µM, first compound 10 µM
[25] = second compound 10 µM, first compound 0.0316 µM
[26] = second compound 10 µM, first compound 0.1 µM
[27] = second compound 10 µM, first compound 0.316 µM
[28] = second compound 10 µM, first compound 1 µM
[29] = second compound 10 µM, first compound 3.16 µM
[30] = second compound 10 µM, first compound 10 µM
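Note: spheroids exposed to agents for seven days before viability read.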

Structure (SMILES): COc1cc(Nc2ncc3c(n2)-c2ccc(Cl)cc2C(c2c(F)cccc2OC)=NC3)ccc1C(=O)O + Cc1cncc(-c2nc(NCCc3c[nH]c4ccccc34)c3ncn(C(C)C)c3n2)c1
- IC50 (second compound 0.1 µM): > 10 µM
- IC50 (second compound 0.316 µM): > 10 µM
- IC50 (second compound 1 µM): > 10 µM
- IC50 (second compound 3.16 µM): > 10 µM
- IC50 (second compound 10 µM): < 0.0316 µM
- viability, T/C [1]: 116%
- viability, T/C [2]: 130%
- viability, T/C [3]: 149%
- viability, T/C [4]: 91.1%
- viability, T/C [5]: 127%
- viability, T/C [6]: 108%
- viability, T/C [7]: 91.2%
- viability, T/C [8]: 137%
- viability, T/C [9]: 104%
- viability, T/C [10]: 87.1%
- viability, T/C [11]: 93.4%
- viability, T/C [12]: 65%
- viability, T/C [13]: 88.9%
- viability, T/C [14]: 127%
- viability, T/C [15]: 98.2%
- viability, T/C [16]: 107%
- viability, T/C [17]: 76%
- viability, T/C [18]: 80.4%
- viability, T/C [19]: 97.5%
- viability, T/C [20]: 131%
- viability, T/C [21]: 121%
- viability, T/C [22]: 96.2%
- viability, T/C [23]: 82.7%
- viability, T/C [24]: 84.5%
- viability, T/C [25]: 17.1%
- viability, T/C [26]: 14.8%
- viability, T/C [27]: 18.8%
- viability, T/C [28]: 15%
- viability, T/C [29]: 19.1%
- viability, T/C [30]: 25.6%

Structure (SMILES): Cn1ncnc1C1c2n[nH]c(=O)c3cc(F)cc(c23)NC1c1ccc(F)cc1 (stereo not given) + Cc1cncc(-c2nc(NCCc3c[nH]c4ccccc34)c3ncn(C(C)C)c3n2)c1
- IC50 (second compound 0.1 µM): > 0.1 µM
- IC50 (second compound 0.316 µM): > 0.1 µM
- IC50 (second compound 1 µM): > 0.1 µM
- IC50 (second compound 3.16 µM): > 0.1 µM
- IC50 (second compound 10 µM): < 0.000316 µM
- viability, T/C (second compound 0.1 µM, first compound 0.000316 µM): 92.1%
- viability, T/C (second compound 0.1 µM, first compound 0.001 µM): 110%
- viability, T/C (second compound 0.1 µM, first compound 0.00316 µM): 105%
- viability, T/C (second compound 0.1 µM, first compound 0.01 µM): 94.5%
- viability, T/C [1]: 120%
- viability, T/C [2]: 86.2%
- viability, T/C (second compound 0.316 µM, first compound 0.000316 µM): 108%
- viability, T/C (second compound 0.316 µM, first compound 0.001 µM): 113%
- viability, T/C (second compound 0.316 µM, first compound 0.00316 µM): 138%
- viability, T/C (second compound 0.316 µM, first compound 0.01 µM): 81.6%
- viability, T/C [7]: 112%
- viability, T/C [8]: 105%
- viability, T/C (second compound 1 µM, first compound 0.000316 µM): 78.9%
- viability, T/C (second compound 1 µM, first compound 0.001 µM): 142%
- viability, T/C (second compound 1 µM, first compound 0.00316 µM): 116%
- viability, T/C (second compound 1 µM, first compound 0.01 µM): 112%
- viability, T/C [13]: 106%
- viability, T/C [14]: 134%
- viability, T/C (second compound 3.16 µM, first compound 0.000316 µM): 93.7%
- viability, T/C (second compound 3.16 µM, first compound 0.001 µM): 112%
- viability, T/C (second compound 3.16 µM, first compound 0.00316 µM): 92.6%
- viability, T/C (second compound 3.16 µM, first compound 0.01 µM): 98.1%
- viability, T/C [19]: 94.2%
- viability, T/C [20]: 99.3%
- viability, T/C (second compound 10 µM, first compound 0.000316 µM): 9.29%
- viability, T/C (second compound 10 µM, first compound 0.001 µM): 12.6%
- viability, T/C (second compound 10 µM, first compound 0.00316 µM): 9.9%
- viability, T/C (second compound 10 µM, first compound 0.01 µM): 13%
- viability, T/C [25]: 9.12%
- viability, T/C [26]: 22.1%

Structure (SMILES): NS(=O)(=O)OCC1CC(n2ccc3c(NC4CCc5ccccc54)ncnc32)CC1O (stereo not given) + Cc1cncc(-c2nc(NCCc3c[nH]c4ccccc34)c3ncn(C(C)C)c3n2)c1
- IC50 (second compound 0.1 µM): 2.65 µM
- IC50 (second compound 0.316 µM): 2.48 µM
- IC50 (second compound 1 µM): 2.97 µM
- IC50 (second compound 3.16 µM): 8.51 µM
- IC50 (second compound 10 µM): < 0.0316 µM
- viability, T/C [1]: 122%
- viability, T/C [2]: 101%
- viability, T/C [3]: 93.4%
- viability, T/C [4]: 71.9%
- viability, T/C [5]: 42.9%
- viability, T/C [6]: 25.7%
- viability, T/C [7]: 99.7%
- viability, T/C [8]: 104%
- viability, T/C [9]: 99.9%
- viability, T/C [10]: 71%
- viability, T/C [11]: 46.4%
- viability, T/C [12]: 32.5%
- viability, T/C [13]: 82.3%
- viability, T/C [14]: 95.5%
- viability, T/C [15]: 95.3%
- viability, T/C [16]: 97.6%
- viability, T/C [17]: 47.5%
- viability, T/C [18]: 29.1%
- viability, T/C [19]: 80%
- viability, T/C [20]: 114%
- viability, T/C [21]: 140%
- viability, T/C [22]: 103%
- viability, T/C [23]: 64.2%
- viability, T/C [24]: 47.5%
- viability, T/C [25]: 7.19%
- viability, T/C [26]: 15.3%
- viability, T/C [27]: 19%
- viability, T/C [28]: 23%
- viability, T/C [29]: 14.3%
- viability, T/C [30]: 7.16%

Structure (SMILES): O=C(C=Cc1cccc(S(=O)(=O)Nc2ccccc2)c1)NO + Cc1cncc(-c2nc(NCCc3c[nH]c4ccccc34)c3ncn(C(C)C)c3n2)c1
- IC50 (second compound 0.1 µM): 3.65 µM
- IC50 (second compound 0.316 µM): 3.63 µM
- IC50 (second compound 1 µM): 3.03 µM
- IC50 (second compound 3.16 µM): 3.75 µM
- IC50 (second compound 10 µM): < 0.0316 µM
- viability, T/C [1]: 121%
- viability, T/C [2]: 130%
- viability, T/C [3]: 95.4%
- viability, T/C [4]: 104%
- viability, T/C [5]: 53.5%
- viability, T/C [6]: 1.77%
- viability, T/C [7]: 101%
- viability, T/C [8]: 106%
- viability, T/C [9]: 95.3%
- viability, T/C [10]: 92.7%
- viability, T/C [11]: 56.2%
- viability, T/C [12]: 2.06%
- viability, T/C [13]: 112%
- viability, T/C [14]: 122%
- viability, T/C [15]: 96.5%
- viability, T/C [16]: 95.2%
- viability, T/C [17]: 46.6%
- viability, T/C [18]: 3.32%
- viability, T/C [19]: 133%
- viability, T/C [20]: 109%
- viability, T/C [21]: 125%
- viability, T/C [22]: 87.7%
- viability, T/C [23]: 60%
- viability, T/C [24]: 0.96%
- viability, T/C [25]: 9.41%
- viability, T/C [26]: 28.3%
- viability, T/C [27]: 40%
- viability, T/C [28]: 63%
- viability, T/C [29]: 61.8%
- viability, T/C [30]: 0.41%
